Experimental data reported in patent US20070149505A1, “Method of Inhibiting Adhesion Formation” (SmithKline Beecham Corporation, priority 2001, published 2007).
Values joined by “and” are separate entries in the source; they are usually repeats but may differ in a detail not shown here. Equal entries are not always repeated.

Tested on: uterine horn adhesions
Test: rabbit uterine horn model of adhesion formation, oral + local (gel) COMPOUND 1 study
Format: in vivo, New Zealand White rabbits
Design: key to tenacity of the adhesions score (in parentheses), Right Horn, Bowel / tenacity of the adhesions score (in parentheses), Right Horn, Itself / tenacity of the adhesions score (in parentheses), Left Horn, Itself / tenacity of the adhesions score (in parentheses), Right Horn, Left / tenacity of the adhesions score (in parentheses), Left Horn, Bowel / tenacity of the adhesions score (in parentheses), Left Horn, Right / tenacity of the adhesions score (in parentheses), Right Horn, Bladder / tenacity of the adhesions score (in parentheses), Left Horn, Bladder: 0=No Adhesions; 1=mild, easily dissectable adhesions; 2=moderate adhesions; non-dissectable, does not tear the organ; 3=dense adhesions; non-dissectable, tears organ when removed; key to Overall score: overall adhesion score; 1 = mild, 1.5+ slightly tougher/more extensive
Details: for Overall, (group summary): group value ± spread, overall scores analyzed by rank order analysis
Experimental: The compounds of the instant invention are tested in known models of adhesion formation. These test systems include a rabbit sidewall model of adhesion formation as described in Rogers, et al., J. Invest. Surg., 9:388-391 (1996) and Rodgers, et al., […], 69(3):403-408 (1998); a rat model for adhesion formation as described in Harris, et al., Surgery, 117:663-669 (1995); and a rabbit animal model used to examine laparoscopic adhesion prevention. The rabbit uterine horn model may also be used to test the use of the instant vitronectin inhibiting compounds as inhibitors of adhesion formation. The experimental details and results using this model are detailed below.
Animals: New Zealand White rabbits, 2.4-2.7 kg, were purchased and quarantined for at least 2 days prior to use. The rabbits were randomized into appropriate control and treatment groups (see experimental designs below). The rabbits were housed on a 12:12 light:dark cycle with food and water available ad libitum. Each treatment group in all studies contained 8-10 animals.
Adhesion Model: The animals that received COMPOUND 1 or vehicle according to the experimental design (below). The rabbits that received placebo at surgery received two doses of vehicle orally. Rabbits were anesthetized with a mixture of 55 mg/kg ketamine hydrochloride and 5 mg/kg Rompum intramuscularly. Following preparation for sterile surgery, a midline laparotomy was performed. The uterine horns were exteriorized and traumatized by abrasion of the serosal surface with gauze until punctate bleeding developed. Ischemia of both uterine horns was induced by removal of the collateral blood supply. The remaining blood supply to the uterine horns was the ascending branches of the utero-vaginal arterial supply of the myometrium. The midline muscle and skin incision were closed.
After 7 or 14 days, the rabbits were terminated and adhesions were scored on a site and rabbit basis. Specifically, the percentage of the area of the horns adherent to various organs was determined. In addition, the tenacity of the adhesions was scored using the following system:
1=mild, easily dissectable adhesions
3=dense adhesions; non-dissectable, tears organ when removed
An overall score which took into account all of the above data was given to each rabbit. The following scoring system was used:
0.5+ Light, filmy pelvic adhesions involving only one organ, typically only 1 or 2 small adhesions
1.0+ Light, filmy adhesions, not extensive although slightly more extensive than 0.5
1.5+ Adhesions slightly tougher and more extensive than a 1 rating
2.0+ Tougher adhesions, a little more extensive, uterine horns usually have adhesions to both bowel and bladder
2.5+ Same as 2, except the adhesions are usually not filmy at any site and more extensive
3.0+ Tougher adhesions than 2, more extensive, both horns are attached to the bowel and bladder, some movement of the uterus possible
3.5+ Same as 3, but adhesions slightly more extensive and tougher
4.0+ Severe adhesions, both horns attached to the bowel and bladder, unable to move the uterus without tearing the adhesions
The rabbits were scored by two independent observers that were blinded to the prior treatment of the animal. If there was disagreement as to the score to be assigned to an individual animal, the higher score was given.
Statistical Analysis: The tenacity and overall scores were analyzed by rank order analysis and analysis of variance on the ranks. The percentage area of the horns involved to the various organs were compared by Student's t test.
[…] received two loading doses of 60 mg/kg COMPOUND 1 orally prior to surgery. At the end of the procedure, the animals received either nothing (surgical control), or 12 ml of placebo (10% CMC) or one of two doses (1 mg/ml or 0.1 mg/ml) of COMPOUND 1 at the site of surgical injury.
Oral+local study: Two loading doses of COMPOUND 1 (60 mg/kg, po) were administered orally prior to surgery. […]

[1] = 0.1 mg/ml COMPOUND 1, 2 Week Necropsy Time (Table 4), group mean ± spread
[2] = 0.1 mg/ml COMPOUND 1, 2 Week Necropsy Time (Table 4), individual rabbit
[3] = 0.1 mg/ml COMPOUND 1, 2 Week Necropsy Time (Table 4), individual rabbit, dash = site adhesion free
[4] = 0.1 mg/ml COMPOUND 1, 2 Week Necropsy Time (Table 8), group mean ± spread
[5] = 0.1 mg/ml COMPOUND 1, 2 Week Necropsy Time (Table 8), individual rabbit
[6] = 0.1 mg/ml COMPOUND 1, 2 Week Necropsy Time (Table 8), individual rabbit, dash = site adhesion free
[7] = 0.1 mg/ml COMPOUND 1, listed after Control/Placebo 1 Week

O=C(O)C[C@@H]1Cc2ccc(OCCCNc3ccccn3)cc2CN(CC(F)(F)F)C1=O [COMPOUND 1, (S)-3-oxo-8-[3-(pyridin-2-ylamino)-1-propyloxy]-2-(2,2,2-trifluoroethyl)-2,3,4,5-tetrahydro-1H-2-benzazepine-4-acetic acid]
% Horn Involved, Left Horn, Bladder [1]: 7.0 ± 5.0% | % Horn Involved, Left Horn, Bowel [1]: 10.0 ± 4.2% | % Horn Involved, Left Horn, Itself [1]: 22.0 ± 3.6% | % Horn Involved, Left Horn, Right [1]: 21.0 ± 4.8% | % Horn Involved, Right Horn, Bladder [1]: 9.0 ± 4.8% | % Horn Involved, Right Horn, Bowel [1]: 10.0 ± 4.2% | % Horn Involved, Right Horn, Itself [1]: 16.0 ± 5.0% | % Horn Involved, Right Horn, Left [1]: 21.0 ± 4.8% | Overall, (group summary) (0.1 mg/ml COMPOUND 1, 2 Week Necropsy Time (Table 4)): 30.2 ± 6.2 | Overall score [2]: 1.5 (3×) and 2.0 (2×) and 1.0 (2×) and 0.5 and 2.5 (2×) | tenacity of the adhesions score (in parentheses), Left Horn, Bladder [2]: 1 | tenacity of the adhesions score (in parentheses), Left Horn, Bowel [2]: 1 | tenacity of the adhesions score (in parentheses), Left Horn, Itself [2]: 1 (7×) and 2 (2×) | tenacity of the adhesions score (in parentheses), Left Horn, Right [2]: 1 (6×) and 2 (2×) | tenacity of the adhesions score (in parentheses), Right Horn, Bladder [2]: 1 | tenacity of the adhesions score (in parentheses), Right Horn, Bowel [2]: 1 | tenacity of the adhesions score (in parentheses), Right Horn, Itself [2]: 1 (4×) and 2 (2×) | tenacity of the adhesions score (in parentheses), Right Horn, Left [2]: 1 (6×) and 2 (2×) | % Horn Involved, Left Horn, Bladder [3]: 10% (2×) and 50% | % Horn Involved, Left Horn, Bowel [3]: 10% (2×) and 20% (2×) and 40% | % Horn Involved, Left Horn, Itself [3]: 40% and 30% (3×) and 20% (4×) and 10% | % Horn Involved, Left Horn, Right [3]: 30% (3×) and 40% (2×) and 20% and 10% (2×) | % Horn Involved, Right Horn, Bladder [3]: 10% (4×) and 50% | % Horn Involved, Right Horn, Bowel [3]: 10% (2×) and 20% (2×) and 40% | % Horn Involved, Right Horn, Itself [3]: 40% and 30% (3×) and 10% and 20% | % Horn Involved, Right Horn, Left [3]: 30% (3×) and 40% (2×) and 20% and 10% (2×) | % Horn Involved, Left Horn, Bladder [4]: 7.0 ± 3.4% | % Horn Involved, Left Horn, Bowel [4]: 15.0 ± 5.0% | % Horn Involved, Left Horn, Itself [4]: 23.0 ± 5.6% | % Horn Involved, Left Horn, Right [4]: 15.0 ± 4.8% | % Horn Involved, Right Horn, Bladder [4]: 7.0 ± 3.4% | % Horn Involved, Right Horn, Bowel [4]: 13.0 ± 4.7% | % Horn Involved, Right Horn, Itself [4]: 11.0 ± 3.5% | % Horn Involved, Right Horn, Left [4]: 15.0 ± 4.8% | Overall, (group summary) (0.1 mg/ml COMPOUND 1, 2 Week Necropsy Time (Table 8)): 22.0 ± 4.8 | Overall score [5]: 2.0 (2×) and 1.5 (4×) and 1.0 (2×) and 0.5 (2×) | tenacity of the adhesions score (in parentheses), Left Horn, Bladder [5]: 1 | tenacity of the adhesions score (in parentheses), Left Horn, Bowel [5]: 1 | tenacity of the adhesions score (in parentheses), Left Horn, Itself [5]: 1 | tenacity of the adhesions score (in parentheses), Left Horn, Right [5]: 1 | tenacity of the adhesions score (in parentheses), Right Horn, Bladder [5]: 1 | tenacity of the adhesions score (in parentheses), Right Horn, Bowel [5]: 1 | tenacity of the adhesions score (in parentheses), Right Horn, Itself [5]: 1 | tenacity of the adhesions score (in parentheses), Right Horn, Left [5]: 1 | % Horn Involved, Left Horn, Bladder [6]: 30% and 10% (2×) and 20% | % Horn Involved, Left Horn, Bowel [6]: 40% and 30% (3×) and 10% (2×) | % Horn Involved, Left Horn, Itself [6]: 30% (4×) and 50% and 20% and 40% | % Horn Involved, Left Horn, Right [6]: 10% and 40% and 30% (2×) and 20% (2×) | % Horn Involved, Right Horn, Bladder [6]: 30% and 10% (2×) and 20% | % Horn Involved, Right Horn, Bowel [6]: 40% and 30% (2×) and 10% (3×) | % Horn Involved, Right Horn, Itself [6]: 30% (2×) and 10% (5×) | % Horn Involved, Right Horn, Left [6]: 10% and 40% and 30% (2×) and 20% (2×) | # Sites Adhesion Free [7]: 34 | % Sites Adhesion Free [7]: 42.5% | # Sites Adhesion Free (0.1 mg/ml COMPOUND 1, listed after Control/Placebo 2 Weeks): 31
